The values below come from patent publication US20030096831A1, “Ocular growth and nicotinic antagonists” (priority 2000, published 2003).

For series [1], the system named is nicotinic receptors mediating dopamine release from rat synaptosomal preparations. Particulars: cited from earlier work.
Series [2] concerns the target human muscle nicotinic receptors (Homo sapiens, UniProt P02708+P07510+Q07001). Particulars: cited from earlier work.
The test system of series [3] is putative α3β4-containing receptor. Particulars: cited from earlier work.
The test system of series [4] is nicotinic receptors in preparations of rat thalamus. The conditions noted are these: cited from earlier work.
Another series concerns accommodation. Particulars: nicotine intravitreal and subconjunctival; vecuronium bromide applied to corneas; cited from earlier work.
For the next series, the system named is development of myopia. The conditions noted are these: chick, tree shrew, monkey and human; cited from earlier work.
Another series has as its system form deprived eye. As to the kind of experiment: Longer term effects of single-dose chlorisondamine on form deprivation myopia. The conditions noted are these: for Refraction Difference: goggled minus contralateral eye. In kind it is in vivo, chicks. On the procedure:
Longer term effects of single-dose chlorisondamine. In a separate experiment, another group of goggled chicks received a single intravitreal dose of 200 μg of chlorisondamine to the form deprived eye and saline to the contralateral eye only at the time of goggle application. They were compared to a group of unilaterally goggled chicks receiving a single saline injection to both eyes only at the time of goggle application. Neither group received subsequent intraocular injections. These chicks were evaluated by refractometry and ultrasound 4 days later, using ketamine/xylazine anesthesia. At one week after goggle application and single drug injection, the same chicks were evaluated again with refractometry, ultrasonography and caliper measurements of enucleated eyes as described above.

In series [5] the test system is goggled eyes (form-deprivation myopia). As to the kind of experiment: Form-deprivation myopia in unilaterally goggled chicks, intravitreal drug for one week.
Series [6] concerns retina, retinal pigment epithelium, choroid. As to the kind of experiment: Histopathological effects on goggled and never-goggled eyes. In kind it is in vivo, chicks. The conditions noted are these: one week. On the procedure: Histopathological effects. To identify potential histopathologic effects in other groups of monocularly deprived or never-goggled one-week old chicks, chlorisondamine (200 or 100 μg every other day; n=5-6/group), mecamylamine (200 or 50 μg daily; n=5-8/group) or saline vehicle (n=3-9/group) was administered by intravitreal injection to the goggled eyes or to one of the open eyes of never-goggled chicks with vehicle to the contralateral eye, using the identical protocol as above. After one week of treatment, the above protocols provided refraction, ultrasound and caliper measurements. The eyes were then immersion fixed in 3% glutaraldehyde/0.5% paraformaldehyde in 0.1M phosphate buffer, pH 7.4. The posterior segments were either embedded in paraffin, cut at 5 μm thickness and stained with hematoxylin and eosin, or embedded in historesin, cut at 3 μm or 5 μm thickness and stained with 0.5% azure II/0.5% methylene blue in 1% borate.

For series [7], the system named is chick eye (intraocular muscles, refraction, ocular dimensions). The series can be described thus: Acute drug effects after a single intravitreal injection (pupil, refractometry, ultrasonography). In kind it is in vivo, chicks. On the procedure: Acute drug effects. To assess acute drug effects, other two-week old chicks (n=5/group) received a single unilateral intravitreal injection of one of the nicotinic antagonists at doses chosen based on drug effects on the growth of goggled eyes: 200 μg chlorisondamine, 50 μg and 1 μg mecamylamine, 5 μg methyllycaconitine or […] dihydro-β-erythroidine. Just before and at two hours and 24 hours after injection, both eyes were examined by refractometry and ultrasonography by the above methods.

The next series deals with non-goggled eyes. As to the kind of experiment: Eye growth and refraction of non-goggled (open) eyes, intravitreal drug for one week.
In another series the test system is chick eye refraction. Particulars: cited from earlier work.
Series [8] concerns ocular elongation following spectacle-induced hyperopic defocus. Particulars: applied to chick corneas; cited from earlier work.
[9] abbreviates: 1 Week after single 200 μg dose.
[10] abbreviates: 4 Days after single 200 μg dose.
Setting [11] is: difference goggled vs contralateral open eye, intravitreal, one week, ANOVA over all doses.
The mark [12] stands for this setting: goggled chicks, P<0.05, dose groups that differ, listed as Chlorisondamine.
Where [13] appears, read: 100 μg every other day, goggled or non-goggled eyes.
Where [14] appears, read: 2 hours after 200 μg single intravitreal injection.
Where [15] appears, read: 24 hours after 200 μg single intravitreal injection.
Where [16] appears, read: never-goggled chicks, drug treated vs contralateral vehicle treated eye, ANOVA on ranks.
The mark [17] stands for this setting: non-goggled chicks, treated eyes, P<0.05.

Several values for one entry are separate records, joined by “and”; a condition that tells them apart may be missing. Equal entries are not always repeated. Entries after “also recorded” stand apart in the source; their conditions may differ.

human muscle nicotinic receptors, sequence (P02708 21-457): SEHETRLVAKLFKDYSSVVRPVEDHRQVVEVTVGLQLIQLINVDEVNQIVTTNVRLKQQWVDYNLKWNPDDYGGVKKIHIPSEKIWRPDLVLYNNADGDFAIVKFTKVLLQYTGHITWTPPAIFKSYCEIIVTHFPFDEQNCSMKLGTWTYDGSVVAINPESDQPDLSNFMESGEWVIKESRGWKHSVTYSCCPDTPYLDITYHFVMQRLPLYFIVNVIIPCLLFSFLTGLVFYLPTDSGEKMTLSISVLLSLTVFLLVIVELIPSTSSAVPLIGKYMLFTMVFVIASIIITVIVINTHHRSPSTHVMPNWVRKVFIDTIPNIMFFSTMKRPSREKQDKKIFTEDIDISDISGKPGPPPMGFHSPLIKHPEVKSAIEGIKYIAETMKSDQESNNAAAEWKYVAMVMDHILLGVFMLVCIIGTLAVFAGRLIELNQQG
human muscle nicotinic receptors, sequence (Q07001 22-517): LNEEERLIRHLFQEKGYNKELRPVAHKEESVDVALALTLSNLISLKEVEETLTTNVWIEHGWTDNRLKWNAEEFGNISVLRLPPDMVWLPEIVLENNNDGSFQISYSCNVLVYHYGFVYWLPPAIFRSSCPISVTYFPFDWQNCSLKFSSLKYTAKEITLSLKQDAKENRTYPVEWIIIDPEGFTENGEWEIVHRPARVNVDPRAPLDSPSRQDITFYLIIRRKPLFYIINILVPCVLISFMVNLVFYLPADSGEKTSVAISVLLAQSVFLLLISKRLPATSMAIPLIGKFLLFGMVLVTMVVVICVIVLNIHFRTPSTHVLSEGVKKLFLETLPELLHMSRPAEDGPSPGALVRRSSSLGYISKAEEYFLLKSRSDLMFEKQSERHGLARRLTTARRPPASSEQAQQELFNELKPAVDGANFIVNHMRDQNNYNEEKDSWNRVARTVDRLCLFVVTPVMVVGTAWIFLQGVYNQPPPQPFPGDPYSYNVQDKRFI
human muscle nicotinic receptors, sequence (P11230 24-501 partner): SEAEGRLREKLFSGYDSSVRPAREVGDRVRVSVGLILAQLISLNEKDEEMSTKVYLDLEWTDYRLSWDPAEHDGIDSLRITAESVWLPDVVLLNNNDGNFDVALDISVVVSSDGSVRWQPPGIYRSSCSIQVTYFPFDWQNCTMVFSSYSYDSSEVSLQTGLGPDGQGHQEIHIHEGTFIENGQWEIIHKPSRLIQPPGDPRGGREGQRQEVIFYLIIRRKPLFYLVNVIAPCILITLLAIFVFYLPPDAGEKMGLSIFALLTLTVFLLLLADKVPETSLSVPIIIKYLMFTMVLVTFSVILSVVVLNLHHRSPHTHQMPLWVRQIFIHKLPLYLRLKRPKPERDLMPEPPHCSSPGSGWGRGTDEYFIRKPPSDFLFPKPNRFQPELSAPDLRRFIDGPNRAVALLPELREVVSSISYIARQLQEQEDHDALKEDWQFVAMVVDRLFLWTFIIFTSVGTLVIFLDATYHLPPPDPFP
human muscle nicotinic receptors, sequence (P07510 23-517): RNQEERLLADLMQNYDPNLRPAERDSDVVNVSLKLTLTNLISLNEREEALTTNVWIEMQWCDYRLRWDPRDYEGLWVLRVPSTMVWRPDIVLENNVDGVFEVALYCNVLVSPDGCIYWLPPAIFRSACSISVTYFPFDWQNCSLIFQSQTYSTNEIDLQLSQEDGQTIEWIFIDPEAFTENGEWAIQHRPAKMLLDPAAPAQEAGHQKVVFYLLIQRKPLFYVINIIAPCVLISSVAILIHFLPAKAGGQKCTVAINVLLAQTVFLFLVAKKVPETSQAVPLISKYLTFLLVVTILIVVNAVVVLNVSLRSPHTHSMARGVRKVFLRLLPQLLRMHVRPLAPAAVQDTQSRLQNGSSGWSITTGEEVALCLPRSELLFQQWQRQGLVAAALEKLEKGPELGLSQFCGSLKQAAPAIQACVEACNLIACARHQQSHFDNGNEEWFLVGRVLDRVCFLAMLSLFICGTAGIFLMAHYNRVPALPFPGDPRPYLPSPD

In the case of `c1cncc(C2CC3CCN2CC3)c1` (racemic) [RJR-2429, (+/−)-2-(-3-pyridinyl)-1-azabicyclo [2.2.2]octane], the “action at nicotinic receptors mediating dopamine release” value in series [1] was “partial agonist”. Also, the “action at human muscle nicotinic receptors” value in series [2] is “selectively activates”. Moreover, the “action at putative α3β4-containing receptor” value in series [3] is given as “selectively activates”. In addition, the “action at nicotinic receptors in preparations of rat thalamus” value in series [4] was “inhibits”.
As for `CN1[C@@H]2CC[C@H]1C[C@@H](OC(=O)C(CO)c1ccccc1)C2` (stereo partly shown) [atropine], in the series with accommodation, the “effect on accommodation in chicks” value was “fails to paralyze accommodation”. Moreover, the development of myopia result with development of myopia is recorded as “retards the development of myopia; also recorded: blocks myopia in the chick”.
As for `C[N+](C)(C)CC[N+]1(C)Cc2c(Cl)c(Cl)c(Cl)c(Cl)c2C1` [chlorisondamine, chlorisondamine diiodide], in the series with form deprived eye (1 Week), the “axial length difference (ultrasound), ratio-chlorisondamine/vehicle” value is recorded as 0.54 and the “vitreous cavity length difference, ratio-chlorisondamine/vehicle” value came out at 0.71. Further, in the series on form deprived eye (setting [9]), the “Caliper Measurements axial length difference” value worked out at 0.22 ± 0.10 mm**, the “Caliper Measurements equatorial diameter difference” value stood at 0.17 ± 0.07 mm****, the “Ultrasound Measurements axial length difference” value was 0.33 ± 0.11 mm** and the “Ultrasound Measurements vitreous cavity length difference” value is reported as 0.49 ± 0.08 mm*. Further, the “Refraction Difference” value in the series on form deprived eye (setting [9]) is given as −8.58 ± 2.06 diopters. Also, in the series on form deprived eye (4 Days), the “axial length difference (ultrasound), ratio-chlorisondamine/vehicle” value amounted to 0.47 and the “vitreous cavity length difference, ratio-chlorisondamine/vehicle” value stood at 0.70. In the series on form deprived eye (setting [10]), the “Ultrasound Measurements axial length difference” value was 0.20 ± 0.07 mm***, the “Ultrasound Measurements vitreous cavity length difference” value was 0.28 ± 0.06 mm and the “Refraction Difference” value is on record as −2.98 ± 1.88 diopters**. Further, in the series with form deprived eye (single dose of 200 μg at the time of goggle application, over the next week), the “response for form deprivation after a single dose, in words” value is “significantly blunted the response for form deprivation over the next week”. Further, in series [5] (setting [11]), the “axial length measured by digital calipers, goggled eyes, drug effect” value is listed as “inhibited the excessive axial elongation developing beneath a goggle”; the “axial length measured by ultrasound, goggled eyes, drug effect” value is “inhibited the excessive axial elongation developing beneath a goggle”; the “equatorial diameter measured by calipers (equatorial expansion of vitreous cavity), goggled eyes, drug effect” value is “reduced the vitreous cavity expansion”; the “refraction of goggled eyes (myopic refractive error), drug effect” value is given as “reduced the myopic refractive error; also recorded: influenced the myopic refraction occurring beneath a goggle”. Also, the “vitreous cavity length measured by ultrasound, goggled eyes, drug effect” value in [5] (setting [11]) is reported as “reduced the vitreous cavity expansion”. In addition, in [5] (goggled chicks, P<0.05, dose groups that differ), the “Ultrasound measurements vitreous cavity depth: statistically significant post hoc pairwise comparisons (Tukey test)” value is on record as 100 μg vs. 50 μg. In series [5] (setting [12]), the “Ultrasound measurements axial length: statistically significant post hoc pairwise comparisons (Tukey test)” value was “significant drug effects compared to the vehicle-treated controls”, the “Ultrasound measurements vitreous cavity depth: statistically significant post hoc pairwise comparisons (Tukey test)” value is “significant drug effects compared to the vehicle-treated controls” and the “refraction: statistically significant post hoc pairwise comparisons (Tukey test)” value is given as “significant drug effects compared to the vehicle-treated controls”. The “overall effect on excessive ocular growth / experimental myopia of goggled eyes” value in series [5] (intravitreal, one week) is given as “reduced the excessive ocular growth occurring beneath a goggle”. For the same compound, the “anterior chamber depth of goggled eyes, drug effect” value in series [5] (intravitreal, one week, ANOVA) was “no statistically significant effect”. Besides, in series [6] (setting [13]), the “gross inspection of the eye cups” value was “either a normal fundus or only mild peripheral pigmentary changes”; the histology result was “Some eyes had normal histology, some showed a single large, smooth hyper-pigmented inclusion within a rare RPE cell as the sole detectable histologic change, and some had a small isolated peripheral patch of the marked RPE/choriocapillaris pathology”. Further, the “gross inspection of the eye cup” value in series [6] (200 μg every other day, most goggled eyes (4/5) and all never-goggled eyes (n=5)) was “mild to marked mottling and depigmentation of the mid-peripheral fundus”. In addition, the “histology of tissue sections” value in series [6] (200 μg every other day, regions corresponding to peripheral depigmented areas) is “marked disruption and clumping of cells of the retinal pigment epithelium (RPE)”. Further, the “acute effect on ultrasound measurements of ocular dimensions, in words” value in [7] (2 and 24 hours after single intravitreal injection) is “transiently reducing axial and vitreous cavity lengths at the 2 hour but not at the 24 hour reading”. For the same compound, in [7] (setting [14]), the “reduction in axial length by ultrasonography” value stood at 0.16±0.04 mm, the “reduction in posterior chamber depth by ultrasonography” value turned out to be 0.20±0.07 mm and the “reduction of lens thickness” value worked out at 0.12±0.04 mm. For the same compound, in series [7] (setting [15]), the “axial length and posterior chamber depth at 24 hours” value is “returned to baseline”; the “reduction of lens thickness” value was 0.16±0.05 mm. Further, in series [7] (24 hours after single intravitreal injection (chlorisondamine 200 μg)), the “pupil diameter, change from baseline” value is reported as 0.7±0.2 mm. The “pupil diameter, change from baseline” value in series [7] (two hours after single intravitreal injection of 200 μg) is recorded as 0.8±0.1 mm. In addition, the “equatorial expansion of the vitreous cavity, non-goggled drug-treated eyes” value in the series with non-goggled eyes (never-goggled chicks, ANOVA on ranks) is “did not reach statistical significance”. The “increase in lens thickness” value in the series with non-goggled eyes (never-goggled chicks, both eyes of the 10 μg group compared to 50, 100 or 200 μg doses and saline chicks) is reported as “about 0.1 mm”. Moreover, in the series with non-goggled eyes (setting [16]), the “axial expansion of the vitreous cavity, non-goggled drug-treated eyes” value is listed as “growth reduction was confined to the vitreous cavity; also recorded: inhibited the axial expansion of the vitreous cavity”; the “axial length by calipers, non-goggled drug-treated eyes” value is on record as “reduced the axial growth of drug-treated eyes; also recorded: reduced axial length”; the “axial length by ultrasound, non-goggled drug-treated eyes” value was “reduced the axial growth of drug-treated eyes; also recorded: reduced axial length”; the “refraction of non-goggled drug-treated eyes” value was “hyperopic shift in refraction; also recorded: shifted overall refraction towards hyperopia”. Further, in the series on non-goggled eyes (setting [17]), the “Ultrasound measurements vitreous cavity depth: statistically significant post hoc pairwise comparisons (Tukey test)” value was 100 μg and 50 μg and 100 μg vs. 50 μg; the “refraction: statistically significant post hoc pairwise comparisons (Tukey test)” value is 200 μg and 10 μg and 200 μg vs. 10 μg.
For `CN1CCCC1c1cccnc1` (stereo not shown) [nicotine], the “effect on accommodation in chicks” value in the series with accommodation is “induce accommodation”. Further, in the series on chick eye refraction (daily subconjunctival injections, not seen for subconjunctival saline), the “myopic refractive shift compared to non-treated eyes” value is listed as 0.75 diopters. Further, in the series on chick eye refraction (twice daily intravitreal injections for two weeks, intravitreal saline had the same effect), the “myopic shift in refraction compared to contralateral non-injected eyes” value is on record as about 2 diopter.
Regarding `CC(=O)O[C@H]1C[C@@H]2CC[C@@H]3[C@H](CC[C@@]4(C)[C@H]3C[C@H]([N+]3(C)CCCCC3)[C@@H]4OC(C)=O)[C@@]2(C)C[C@@H]1N1CCCCC1` [vecuronium bromide], the “ocular elongation following spectacle-induced hyperopic defocus” value in [8] is reported as “failed to influence”. In addition, the “effect on accommodation in chicks” value in the series on accommodation is on record as “paralyzed accommodation”.
